According to patent US10570213B2, “Methods of treating cancers using PD-1 axis binding antagonists and taxanes” (Genentech, Inc., priority 2013, dated 2020):

Tested on: MC38 colorectal tumor
Assay: syngeneic MC38 colorectal tumor model in C57BL/6 mice
Assay type: in vivo
Details: FIG. 1 experiment
Description: Mice with established subcutaneous MC38 tumors of approximately 100-200 mm^3 were treated with single-dose carboplatin at 80 mg/kg by intraperitoneal (IP) injection plus paclitaxel at 10 mg/kg injected intravenously (IV), and anti-gp120 antibody or anti-PD-L1 (clone 25A1 mIgG2a.DANA) at 10 mg/kg dosed 3 times a week for 3 weeks. N=10 mice/group.
Mice with established subcutaneous MC38 tumors of approximately 100-200 mm^3 were treated with a single dose of either saline or dexamethasone at 4 mg/kg IV and 12 hours later, treated with either control anti-gp120 antibody or anti-PD-L1 (clone 25A1.mIgG2a.DANA) at 10 mg/kg IP 3 times a week for 3 weeks. N=10 mice/group.
Mice with established subcutaneous MC38 tumors of approximately 300 mm^3 were treated with anti-gp120 control antibody or anti-PD-L1 antibody (clone YW243.55.570 mIgG2a.DANA) administered by IP injection at 10 mg/kg 3 times a week for 3 weeks, plus saline or carboplatin at 75 mg/kg IP weekly for 3 weeks plus ABRAXANE® at 15 mg/kg iv weekly for 3 weeks, as indicated. N=8 mice/group.
MC38 colorectal tumor cell lines were maintained at Genentech. 7-10 week old C57BL/6 female mice (Charles River Laboratories; Hollister, Calif.) were inoculated subcutaneously in the right unilateral flank with 0.1 million MC38 cells. […]

paclitaxel+carboplatin
mice with partial response (in words) (N=10 mice/group): no mice | time to progression (TTP), 5× the initial tumor volume (tumors approximately 100-200 mm^3 at start, anti-PD-L1 clone 25A1): 15.5 days
